Source: US20260250257A1, “ANTIBACTERIAL AND SYNERGISTIC ACTIVE COMPOUND AND USE THEREOF” (EAST CHINA UNIVERSITY OF SCIENCE AND TECHNOLOGY, priority 2023, published 2026)
Converted amounts (≈) assume the structure as drawn.

Legend:
Assay type in all cases: cell-based
[1] = test system: ATCC13883 strain (Klebsiella pneumoniae); assay: Checkerboard antibacterial synergistic activity test with polymyxin E (FIC); set-up: key: FIC≤0.5 synergy; 0.5–1 additive; 1–2 indifferent; ≥2 antagonism; settings: combined with polymyxin E
Method in brief: (§1)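 Broth checkerboard synergy with colistin; listed dilutions are working solutions, not final well levels. Overnight incubation, 16 h at 37° C.; FIC ≤0.5 denotes synergy, ≥2 antagonism.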

[2] = test system: ATCC19606 strain (Acinetobacter baumannii); assay: as above; set-up: key: FIC≤0.5 synergy; 0.5–1 additive; 1–2 indifferent; ≥2 antagonism; settings: combined with polymyxin E
Method in brief: as §1

[3] = test system: ATCC25922 strain (Escherichia coli); assay: as above; set-up: key: FIC≤0.5 synergy; 0.5–1 additive; 1–2 indifferent; ≥2 antagonism; settings: combined with polymyxin E
Method in brief: as §1

[4] = test system: ATCC9027 strain (Pseudomonas aeruginosa); assay: as above; set-up: key: FIC≤0.5 synergy; 0.5–1 additive; 1–2 indifferent; ≥2 antagonism; settings: combined with polymyxin E
Method in brief: as §1

[5] = test system: ATCC13883 strain (Klebsiella pneumoniae); assay: Broth microdilution, antibacterial activity of the compound used alone; settings: for MIC: read-out: Antibacterial activity of the compound of Formula I, ATCC13883
Excerpt: (§2) The broth microdilution method was used to test the antibacterial effects of the compounds of the present invention against various Gram-negative bacterial strains when used alone.

[6] = test system: ATCC19606 strain (Acinetobacter baumannii); assay: as above; settings: for MIC: read-out: Antibacterial activity of the compound of Formula I, ATCC19606
Excerpt: as §2

[7] = test system: ATCC25922 strain (Escherichia coli); assay: as above; settings: for MIC: read-out: Antibacterial activity of the compound of Formula I, ATCC25922
Excerpt: as §2

[8] = test system: ATCC9027 strain (Pseudomonas aeruginosa); assay: as above; settings: for MIC: read-out: Antibacterial activity of the compound of Formula I, ATCC9027
Excerpt: as §2

Row | MIC [5] [µg/mL] | MIC [6] [µg/mL] | MIC [7] [µg/mL] | MIC [8] [µg/mL] | SMILES | Synergistic activity (FIC value) ATCC13883 [1] | Synergistic activity (FIC value) ATCC19606 [2] | Synergistic activity (FIC value) ATCC25922 [3] | Synergistic activity (FIC value) ATCC9027 [4] | Antibacterial activity of the compound of Formula I, ATCC13883 [5] [µg/mL] | Antibacterial activity of the compound of Formula I, ATCC19606 [6] [µg/mL] | Antibacterial activity of the compound of Formula I, ATCC25922 [7] [µg/mL] | Antibacterial activity of the compound of Formula I, ATCC9027 [8] [µg/mL]
1 | 128 (≈ 331 µM) | 256 (≈ 662 µM) | 128 (≈ 331 µM) | 64 (≈ 166 µM) | CC(C)(C)c1cc(-c2csc(NC3=NCCCN3)n2)cc(C(C)(C)C)c1O [Compound I-163] | 0.19 | 0.38 | 0.04 | 0.04 | – | – | – | –
2 | – | – | – | – | CC(C)(C)c1ccc(-c2c[nH]c(N=C(N)N)n2)cc1 [Compound I-12] | 0.25 | 0.28 | 0.5 | 0.63 | 256 | 256 | 256 | 256
3 | – | – | – | – | CC(C)=CCOc1ccccc1-c1csc(N=C(N)N)n1 [Compound I-46] | 0.25 | 0.31 | 0.27 | 0.52 | 256 | 256 | 256 | 256
4 | – | – | – | – | Clc1cccc(-c2csc(N=C3NCCCN3)n2)c1Cl [Compound I-184] | 0.25 | 0.28 | 0.5 | 0.63 | 256 | 256 | 256 | 256
5 | 256 (≈ 789 µM) | 256 (≈ 789 µM) | 256 (≈ 789 µM) | 128 (≈ 395 µM) | NC(N)=Nc1nc(-c2cccc(OCc3ccccc3)c2)cs1 [Compound I-8] | 0.53 | 0.25 | 1.25 | 0.53 | – | – | – | –
6 | – | – | – | – | NC(N)=Nc1nc(-c2cccc3cc(Cl)cc(Cl)c23)c(Br)s1 [Compound I-66] | 0.31 | 0.13 | 0.38 | 0.53 | 256 | 256 | 256 | 256
7 | – | – | – | – | NC(N)=Nc1nc(-c2cccc3c(Cl)cccc23)c[nH]1 [Compound I-65] | 1.25 | 0.5 | 1.25 | 1.25 | 256 | 256 | 256 | 256
